Test results published in the kinase profiling compilation of Christmann-Franck et al. (2016).

Legend:
[1] = target: TXK (human) (UniProt P42681)
[2] = target: BRSK2 (human) (UniProt Q8IWQ3)
[3] = target: LTK (human) (UniProt P29376)
[4] = target: PAK2 (human) (UniProt Q13177)
[5] = target: PRKAA1 (human) (UniProt Q13131)
[6] = target: PTK2 (human) (UniProt Q05397)
[7] = target: PTK2B (human) (UniProt Q14289)
[8] = target: ROS1 (human) (UniProt P08922)
[9] = target: RPS6KA4 KD1 (human) (UniProt O75676)
[10] = target: RPS6KA5 KD1 (human) (UniProt O75582)
[11] = target: TYK2 JH1 catalytic (human) (UniProt P29597)

Chain of PTK2 (human) (Q05397 whole entry, looked up): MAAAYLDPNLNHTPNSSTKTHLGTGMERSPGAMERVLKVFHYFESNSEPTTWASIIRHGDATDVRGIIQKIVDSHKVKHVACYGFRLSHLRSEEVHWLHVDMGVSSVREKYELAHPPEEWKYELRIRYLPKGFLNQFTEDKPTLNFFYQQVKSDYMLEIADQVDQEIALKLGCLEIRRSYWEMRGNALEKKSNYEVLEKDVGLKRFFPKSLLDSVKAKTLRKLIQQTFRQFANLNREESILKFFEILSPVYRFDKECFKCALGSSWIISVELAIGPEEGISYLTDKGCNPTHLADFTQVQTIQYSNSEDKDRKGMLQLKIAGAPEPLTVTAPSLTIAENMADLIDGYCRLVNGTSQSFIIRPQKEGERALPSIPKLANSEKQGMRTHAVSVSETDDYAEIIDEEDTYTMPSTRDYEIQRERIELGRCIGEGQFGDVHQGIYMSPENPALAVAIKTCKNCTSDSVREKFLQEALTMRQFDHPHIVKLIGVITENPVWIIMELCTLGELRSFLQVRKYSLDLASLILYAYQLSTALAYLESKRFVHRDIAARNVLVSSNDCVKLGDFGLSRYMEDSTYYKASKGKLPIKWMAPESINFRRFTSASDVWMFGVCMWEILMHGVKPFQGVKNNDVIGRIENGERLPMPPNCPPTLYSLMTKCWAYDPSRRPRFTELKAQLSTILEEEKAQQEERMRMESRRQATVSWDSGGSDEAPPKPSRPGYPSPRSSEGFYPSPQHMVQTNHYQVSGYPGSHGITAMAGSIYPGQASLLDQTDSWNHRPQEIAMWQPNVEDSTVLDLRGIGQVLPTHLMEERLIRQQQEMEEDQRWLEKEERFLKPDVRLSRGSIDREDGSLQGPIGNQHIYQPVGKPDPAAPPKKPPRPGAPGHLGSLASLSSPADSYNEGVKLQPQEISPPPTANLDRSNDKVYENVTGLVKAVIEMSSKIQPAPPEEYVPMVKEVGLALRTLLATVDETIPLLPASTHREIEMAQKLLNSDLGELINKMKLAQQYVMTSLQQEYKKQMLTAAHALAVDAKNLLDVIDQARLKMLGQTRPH
Chain of BRSK2 (human) (Q8IWQ3 whole entry, looked up): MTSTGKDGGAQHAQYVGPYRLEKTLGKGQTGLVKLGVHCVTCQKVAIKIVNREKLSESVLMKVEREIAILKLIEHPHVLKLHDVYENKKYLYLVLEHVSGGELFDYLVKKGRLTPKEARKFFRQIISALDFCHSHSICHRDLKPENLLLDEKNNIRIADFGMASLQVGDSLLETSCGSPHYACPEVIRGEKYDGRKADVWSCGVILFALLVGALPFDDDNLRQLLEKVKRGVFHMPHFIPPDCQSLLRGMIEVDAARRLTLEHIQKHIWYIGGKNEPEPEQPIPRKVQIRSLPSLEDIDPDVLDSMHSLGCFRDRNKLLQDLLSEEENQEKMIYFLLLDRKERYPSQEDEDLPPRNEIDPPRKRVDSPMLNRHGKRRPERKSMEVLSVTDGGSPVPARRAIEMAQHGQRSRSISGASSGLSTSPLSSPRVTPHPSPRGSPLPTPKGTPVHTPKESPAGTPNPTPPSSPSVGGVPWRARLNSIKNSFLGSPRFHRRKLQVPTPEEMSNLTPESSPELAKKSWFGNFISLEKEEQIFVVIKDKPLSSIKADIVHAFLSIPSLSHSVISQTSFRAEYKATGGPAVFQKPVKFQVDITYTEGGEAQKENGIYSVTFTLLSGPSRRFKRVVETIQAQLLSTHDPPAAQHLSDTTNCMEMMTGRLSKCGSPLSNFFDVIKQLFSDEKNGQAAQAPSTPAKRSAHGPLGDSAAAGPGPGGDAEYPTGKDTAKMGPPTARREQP
Chain of PTK2B (human) (Q14289 whole entry, looked up): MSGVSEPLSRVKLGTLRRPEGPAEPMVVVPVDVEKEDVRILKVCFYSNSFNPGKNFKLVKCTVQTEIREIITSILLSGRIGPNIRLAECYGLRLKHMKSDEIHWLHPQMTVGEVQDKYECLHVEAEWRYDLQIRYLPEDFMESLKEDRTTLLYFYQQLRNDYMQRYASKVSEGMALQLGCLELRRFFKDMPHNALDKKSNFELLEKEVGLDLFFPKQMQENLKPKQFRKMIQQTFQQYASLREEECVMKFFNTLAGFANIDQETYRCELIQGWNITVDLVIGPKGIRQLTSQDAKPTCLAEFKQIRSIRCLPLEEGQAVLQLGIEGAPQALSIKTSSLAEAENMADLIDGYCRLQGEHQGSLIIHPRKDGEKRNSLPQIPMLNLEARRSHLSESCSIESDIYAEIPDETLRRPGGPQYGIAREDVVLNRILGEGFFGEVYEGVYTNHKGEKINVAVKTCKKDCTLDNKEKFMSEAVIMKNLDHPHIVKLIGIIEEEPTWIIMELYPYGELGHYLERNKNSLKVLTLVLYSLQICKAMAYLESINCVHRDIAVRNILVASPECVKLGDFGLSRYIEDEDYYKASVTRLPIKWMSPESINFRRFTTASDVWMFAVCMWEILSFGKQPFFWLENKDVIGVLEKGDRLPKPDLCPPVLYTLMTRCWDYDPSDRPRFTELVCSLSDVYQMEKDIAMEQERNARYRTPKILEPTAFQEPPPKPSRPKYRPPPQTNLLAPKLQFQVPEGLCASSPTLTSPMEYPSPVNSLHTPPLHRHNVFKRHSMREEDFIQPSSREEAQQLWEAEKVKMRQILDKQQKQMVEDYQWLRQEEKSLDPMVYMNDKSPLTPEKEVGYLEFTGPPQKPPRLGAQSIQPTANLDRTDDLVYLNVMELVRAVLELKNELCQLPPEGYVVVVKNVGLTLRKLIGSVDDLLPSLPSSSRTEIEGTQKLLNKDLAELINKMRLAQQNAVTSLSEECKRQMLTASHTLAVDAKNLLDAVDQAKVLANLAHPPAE
Chain of RPS6KA5 KD1 (human) (O75582 whole entry, looked up): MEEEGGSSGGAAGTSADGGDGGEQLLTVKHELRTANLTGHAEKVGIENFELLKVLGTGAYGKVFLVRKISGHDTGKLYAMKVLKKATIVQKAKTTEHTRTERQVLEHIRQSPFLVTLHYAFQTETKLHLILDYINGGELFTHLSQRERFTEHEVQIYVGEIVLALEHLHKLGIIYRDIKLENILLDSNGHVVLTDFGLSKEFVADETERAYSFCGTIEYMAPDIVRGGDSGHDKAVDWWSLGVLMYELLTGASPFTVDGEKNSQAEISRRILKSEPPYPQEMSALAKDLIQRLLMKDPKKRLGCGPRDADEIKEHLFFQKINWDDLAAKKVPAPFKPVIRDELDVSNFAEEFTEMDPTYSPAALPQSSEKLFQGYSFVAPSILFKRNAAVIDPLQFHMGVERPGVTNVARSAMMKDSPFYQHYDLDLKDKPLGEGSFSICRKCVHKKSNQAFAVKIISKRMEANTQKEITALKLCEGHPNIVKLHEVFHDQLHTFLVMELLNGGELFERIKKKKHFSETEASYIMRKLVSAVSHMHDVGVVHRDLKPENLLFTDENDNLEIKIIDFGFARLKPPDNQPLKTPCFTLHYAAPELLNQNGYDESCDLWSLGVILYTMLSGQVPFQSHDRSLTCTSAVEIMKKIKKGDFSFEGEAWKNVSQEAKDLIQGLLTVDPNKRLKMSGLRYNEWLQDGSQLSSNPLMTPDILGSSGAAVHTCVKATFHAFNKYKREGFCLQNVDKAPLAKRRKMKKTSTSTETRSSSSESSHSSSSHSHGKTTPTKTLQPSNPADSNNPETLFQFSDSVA
Chain of TXK (human) (P42681 whole entry, looked up): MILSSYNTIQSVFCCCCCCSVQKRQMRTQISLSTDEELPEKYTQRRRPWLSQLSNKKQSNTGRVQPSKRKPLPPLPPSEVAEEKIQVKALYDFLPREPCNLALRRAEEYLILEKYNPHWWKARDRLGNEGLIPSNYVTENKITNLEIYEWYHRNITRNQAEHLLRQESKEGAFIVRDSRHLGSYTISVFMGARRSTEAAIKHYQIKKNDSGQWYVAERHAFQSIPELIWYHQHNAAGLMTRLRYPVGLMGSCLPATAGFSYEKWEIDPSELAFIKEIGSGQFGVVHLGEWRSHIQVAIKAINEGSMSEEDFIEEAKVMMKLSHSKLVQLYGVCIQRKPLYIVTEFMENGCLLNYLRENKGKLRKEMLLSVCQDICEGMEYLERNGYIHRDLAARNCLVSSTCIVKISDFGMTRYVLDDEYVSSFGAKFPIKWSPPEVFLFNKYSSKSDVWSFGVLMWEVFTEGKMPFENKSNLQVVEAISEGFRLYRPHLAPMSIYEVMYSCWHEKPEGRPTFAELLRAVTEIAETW
Chain of PRKAA1 (human) (Q13131 whole entry, looked up): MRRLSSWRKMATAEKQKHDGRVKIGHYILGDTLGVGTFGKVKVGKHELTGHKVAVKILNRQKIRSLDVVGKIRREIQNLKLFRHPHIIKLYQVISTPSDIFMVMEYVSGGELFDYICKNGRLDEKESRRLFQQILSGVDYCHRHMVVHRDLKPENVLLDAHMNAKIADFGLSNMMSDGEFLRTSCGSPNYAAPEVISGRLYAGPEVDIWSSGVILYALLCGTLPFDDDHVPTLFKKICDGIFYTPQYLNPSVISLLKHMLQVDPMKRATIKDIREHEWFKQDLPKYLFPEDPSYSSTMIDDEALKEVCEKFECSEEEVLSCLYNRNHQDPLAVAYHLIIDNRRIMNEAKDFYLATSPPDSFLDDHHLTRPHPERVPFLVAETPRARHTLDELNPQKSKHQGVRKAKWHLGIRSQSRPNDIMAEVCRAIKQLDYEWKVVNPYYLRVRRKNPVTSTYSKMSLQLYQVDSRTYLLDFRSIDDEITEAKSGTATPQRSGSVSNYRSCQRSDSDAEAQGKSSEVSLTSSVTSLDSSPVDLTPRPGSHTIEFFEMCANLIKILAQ

SMILES | Kd [1] [nM] | Kd [2] [nM] | Kd [3] [nM] | Kd [4] [nM] | Kd [5] [nM] | Kd [6] [nM] | Kd [7] [nM] | Kd [8] [nM] | Kd [9] [nM] | Kd [10] [nM] | Kd [11] [nM]
Cc1ccc(C(=O)Nc2cccc(C(C)(C)C)c2)cc1-c1ccc(C(=O)NCC2CC2)cc1 | 80 | – | – | – | – | – | – | – | – | – | –
CCS(=O)(=O)Nc1ccc2c(c1)[C@H](/C(=N/c1ccc(CN3CCCCC3)cc1)c1ccccc1)C(=O)N2 | – | 92 | 52 | 14000 | 19 | 33 | 10 | 77 | 94 | 31 | 75
